Values after ≈ are worked out from the molar mass of the structure shown.
system: Streptococcus pyogenes; experiment: In vitro minimum inhibitory concentration (MIC) vs. Strep. pyogenes; format: cell-based; details: Streptococcus pyogenes, read-out: MIC vs. Strep. pyogenes
Method: The antibacterial penam compounds of the instant invention show activity against a wide variety of gram-positive and gram-negative bacteria. […] The broth is inoculated with the bacterial culture, and with the test antibiotic, and then it is incubated overnight. On the next day, the test is read visually. The minimum inhibitory concentration (MIC) is the lowest concentration of antibiotic which prevents turbidity, i.e., which prevents growth of the microorganism. In vitro activities of several of the penam compounds of the invention are presented later in this specification.
In Table II, the minimum inhibitory concentrations (MIC's) of compounds of formula I, wherein R^2 is hydrogen, against a strain of Streptococcus pyogenes, are reported; and in Table III, minimum inhibitory concentrations of compounds of formula I, wherein R^2 is hydrogen, against a strain of Staphylococcus aureus, are presented. Because of the tautomeric nature of such tetrazole derivatives, referred to hereinbefore,each of the preparations tested also contains some of the corresponding compound of formula II, wherein R^3 is hydrogen.

| Compound | MIC |
| --- | --- |
| CC1(C)S[C@@H]2[C@H](NC(=O)[C@H](NC(=O)CNC(=N)c3ccccc3)c3ccccc3)C(=O)N2[C@H]1c1nnn[nH]1 [6-(D-2-[2-(Benzamidino)acetamido]-2-phenylacetamido)-2,2-dimethyl-3-(5-tetrazolyl)penam] | < 0.1 µg/mL |
| CC1(C)S[C@@H]2[C@H](NC(=O)[C@H](NC(=O)CNC(=N)N)c3ccccc3)C(=O)N2[C@H]1c1nn[nH]n1 | < 0.1 µg/mL |
| CC1(C)S[C@@H]2[C@H](NC(=O)Nc3ccccc3)C(=O)N2[C@H]1c1nnn[nH]1 [3-phenylcarbamoyl, 6-(3-Phenylureido)-2,2-dimethyl-3-(5-tetrazolyl)penam] | < 0.1 µg/mL |
| CC1(C)S[C@@H]2[C@H](NC(=O)[C@H](N)c3ccc(O)c(Cl)c3)C(=O)N2[C@H]1c1nnn[nH]1 [6-(D-2-amino-2-[3-chloro-4-hydroxyphenyl]acetamido)-2,2-dimethyl-3-(5-tetrazolyl)penam] | 0.1 µg/mL (≈ 0.236 µM) |
| CC1(C)S[C@@H]2[C@H](NC(=O)[C@H](NC(=O)c3ccc(N)cc3)c3ccccc3)C(=O)N2[C@H]1c1nn[nH]n1 [D-2-(4-aminobenzamido)-2-phenylacetyl, 6-(D-2-[4-Aminobenzamido]-2-phenylacetamido)-2,2-dimethyl-3-(5-tetrazolyl)penam] | < 0.1 µg/mL |
| CC1(C)S[C@@H]2[C@H](NC(=O)[C@H](NC(=O)Nc3ccc(Cl)cc3)c3ccccc3)C(=O)N2[C@H]1c1nnn[nH]1 | < 0.1 µg/mL |
| CC1(C)S[C@@H]2[C@H](NC(=O)[C@H](NC(=O)CSC3=NC(=O)CN3)c3ccccc3)C(=O)N2[C@H]1c1nn[nH]n1 | 0.1 µg/mL (≈ 0.189 µM) |
| CCSCC(=O)N[C@@H]1C(=O)N2[C@@H]1SC(C)(C)[C@@H]2c1nnn[nH]1 [2-(ethylthio)acetyl] | < 0.1 µg/mL |
| CCCS(=O)(=O)N[C@@H](C(=O)N[C@@H]1C(=O)N2[C@@H]1SC(C)(C)[C@@H]2c1nn[nH]n1)c1ccc(O)cc1 [6-(D-2-[Propanesulfonamido]-2-[p-hydroxyphenyl]acetamido-)-2,2-dimethyl-3-(5-tetrazolyl)penam] | 0.1 µg/mL (≈ 0.202 µM) |
| CC1(C)S[C@@H]2[C@H](NC(=O)[C@H](NC(=O)CNC(=N)c3cc[n+]([O-])cc3)c3ccccc3)C(=O)N2[C@H]1c1nnn[nH]1 | < 0.1 µg/mL |
| CCOc1ccc2ccccc2c1C(=O)N[C@@H]1C(=O)N2[C@@H]1SC(C)(C)[C@@H]2c1nnn[nH]1 [2-ethoxy-1-naphthoyl, 6-(2-Ethoxy-1-naphthamido)-2,2-dimethyl-3-(5-tetrazolyl)penam] | < 0.1 µg/mL |
| CC1(C)S[C@@H]2[C@H](NC(=O)[C@H](NC(=O)C(=Cc3ccc(Cl)cc3)C(=O)O)c3ccccc3)C(=O)N2[C@H]1c1nnn[nH]1 [6-(D-2-[2-carboxy-2(p-chlorophenyl)acrylamido]-2-phenylacetamido)-2,2-dimethyl-3-(5-tetrazolyl)penam] | < 0.1 µg/mL |
| CC1(C)S[C@@H]2[C@H](NC(=O)[C@H](NC(=O)CNC(=N)c3cc(I)cc(C#N)c3)c3ccccc3)C(=O)N2[C@H]1c1nnn[nH]1 | < 0.1 µg/mL |
| CC1(C)S[C@@H]2[C@H](NC(=O)CNC(=N)c3cccs3)C(=O)N2[C@H]1c1nnn[nH]1 [2-(2-thiophenecarboxamidino)acetyl] | < 0.1 µg/mL |
| CC1(C)S[C@@H]2[C@H](NC(=O)[C@H](NC(=O)CCNC(=O)Nc3ccccc3)c3ccccc3)C(=O)N2[C@H]1c1nnn[nH]1 | < 0.1 µg/mL |
| CC1(C)S[C@@H]2[C@H](NC(=O)[C@H](NC(=O)CCl)c3ccco3)C(=O)N2[C@H]1c1nn[nH]n1 [6-(D-2-[2-Chloroacetamido]-2-[2-furyl]acetamido)-2,2-dimethyl-3-(5-tetrazolyl)penam] | < 0.1 µg/mL |
| CC1(C)S[C@@H]2[C@H](NC(=O)C(=O)c3ccccc3)C(=O)N2[C@H]1c1nnn[nH]1 [phenylglyoxyloyl] | < 0.1 µg/mL |
| CC1(C)S[C@@H]2[C@H](NC(=O)[C@H](NC(=O)CCNC(=N)c3ccncc3)c3ccccc3)C(=O)N2[C@H]1c1nnn[nH]1 | < 0.1 µg/mL |
| CC1(C)S[C@@H]2[C@H](NC(=O)[C@H](NC(=O)CNC(=O)c3ccccc3)c3ccccc3)C(=O)N2[C@H]1c1nn[nH]n1 [6-(2-D-[2-Benzamidoacetamido]-2-phenylacetamido)-2,2-dimethyl-3-(5-tetrazolyl)penam] | < 0.1 µg/mL |
| CC1(C)S[C@@H]2[C@H](NC(=O)C(NC(=O)CBr)c3ccccc3)C(=O)N2[C@H]1c1nn[nH]n1 (some centres unmarked) [2-(2-bromoacetamido)-2-phenylacetyl, 6-(2-[2-bromoacetamido]-2-phenylacetamido)-2,2-dimethyl-3-(5-tetrazolyl)penam] | < 0.1 µg/mL |
| CC1(C)S[C@@H]2[C@H](NC(=O)[C@H](NC(=O)c3ccccc3)c3ccccc3)C(=O)N2[C@H]1c1nnn[nH]1 [D-2-(benzamido)-2-phenylacetyl] | < 0.1 µg/mL |
| CC1(C)S[C@@H]2[C@H](NC(=O)[C@H](NC(=O)Cc3ccc([N+](=O)[O-])cc3)c3ccccc3)C(=O)N2[C@H]1c1nn[nH]n1 [6-(D-2-[2-(4-nitrophenyl)acetamido]-2-phenylacetamido)-2,2-dimethyl-3-(5-tetrazolyl)penam] | < 0.1 µg/mL |
| CC1(C)S[C@@H]2[C@H](NC(=O)[C@H](NC(=O)CSc3ccccc3)c3ccccc3)C(=O)N2[C@H]1c1nnn[nH]1 | < 0.1 µg/mL |
| CC1(C)S[C@@H]2[C@H](NC(=O)[C@H](NC(=O)CNC(=O)NC(=O)c3ccccc3)c3ccccc3)C(=O)N2[C@H]1c1nnn[nH]1 | < 0.1 µg/mL |
| CC1(C)S[C@@H]2[C@H](NC(=O)CNC(=O)NC(=N)c3ccccc3)C(=O)N2[C@H]1c1nnn[nH]1 [2-(3-[benzimidoyl]ureido)-acetyl] | < 0.1 µg/mL |
| CC1(C)S[C@@H]2[C@H](NC(=O)C(N)c3cccnc3)C(=O)N2[C@H]1c1nnn[nH]1 (mixture of isomers) [DL-2-amino-2-(3-pyridyl)acetyl] | < 0.1 µg/mL |
| CC1(C)S[C@@H]2[C@H](NC(=O)[C@H](NC(=O)CCC(=N)N)c3ccccc3)C(=O)N2[C@H]1c1nn[nH]n1 | < 0.1 µg/mL |
| CC1(C)S[C@@H]2[C@H](NC(=O)C(=O)Cc3ccccc3)C(=O)N2[C@H]1c1nnn[nH]1 [phenylpyruvoyl, 6-Phenylpyruvamido-2,2-dimethyl-3-(5-tetrazolyl)penam] | < 0.1 µg/mL |
| CC1(C)S[C@@H]2[C@H](NC(=O)[C@H](NC(=O)Cc3ccccc3)c3ccccc3)C(=O)N2[C@H]1c1nnn[nH]1 [D-2-(2-phenylacetamido)-2-phenylacetyl] | < 0.1 µg/mL |

same assay, conditions: Streptococcus pyogenes; Table II; two-fold serial dilution, Brain-Heart Infusion broth, overnight; read-out: MIC vs. Strep. pyogenes

| MIC | Compound |
| --- | --- |
| 0.39 µg/mL (≈ 1.1 µM) | CCOC(=O)CC(=O)N[C@@H]1C(=O)N2[C@@H]1SC(C)(C)[C@@H]2c1nnn[nH]1 [2-(ethoxycarbonyl)acetyl] |
| 25 µg/mL (≈ 49.5 µM) | CC1(C)S[C@@H]2[C@H](NC(=O)[C@H](NC(=O)C(=O)c3ccccc3)c3ccccc3)C(=O)N2[C@H]1c1nnn[nH]1 [D-2-(benzoylformamido)-2-phenylacetyl] |
| 100 µg/mL (≈ 203 µM) | CC1(C)S[C@@H]2[C@H](NC(=O)CNC(=O)NC(=N)Cc3ccc(Cl)cc3)C(=O)N2[C@H]1c1nnn[nH]1 [6-(2-[3-(2-[p-Chlorophenyl]acetimidoyl)ureido]acetamido)-2,2-dimethyl-3-(5-tetrazolyl)penam] |
| 0.2 µg/mL (≈ 0.48 µM) | CC1(C)S[C@@H]2[C@H](NC(=O)Cc3ccccc3CC(=O)O)C(=O)N2[C@H]1c1nnn[nH]1 [2-(2-[carboxymethyl]phenyl)acetyl, 6-(2-[2-(Carboxymethyl)phenyl]acetamido)-2,2-dimethyl-3-(5-tetrazolyl)penam] |
| 0.004 µg/mL (≈ 0.00817 µM) | CC1(C)S[C@@H]2[C@H](NC(=O)[C@H](NC(=O)CSC(=N)N)c3ccccc3)C(=O)N2[C@H]1c1nn[nH]n1 |
| 0.004 µg/mL (≈ 0.00788 µM) | CC1(C)S[C@@H]2[C@H](NC(=O)[C@H](NC(=O)COc3ccccc3)c3ccccc3)C(=O)N2[C@H]1c1nnn[nH]1 [D-2-(2-phenoxyacetamido)-2-phenylacetyl] |
| 0.2 µg/mL (≈ 0.41 µM) | CC1(C)S[C@@H]2[C@H](NC(=O)[C@H](NC(=O)C3OC3C(=O)O)c3ccccc3)C(=O)N2[C@H]1c1nnn[nH]1 (stereo partly drawn) [6-(D-2-[4-Carboxy-2,3-propionamido]-2-phenylacetamido)-2,2-dimethyl-3-(5-tetrazol-5-yl)penam] |
| 0.39 µg/mL (≈ 0.838 µM) | CCS(=O)(=O)N[C@@H](C(=O)N[C@@H]1C(=O)N2[C@@H]1SC(C)(C)[C@@H]2c1nn[nH]n1)c1ccccc1 [D-2-(ethanesulfonamido)-2-phenylacetyl] |
| 12.5 µg/mL | CC1(C)S[C@@H]2[C@H](NC(=O)C(CN)c3ccccc3)C(=O)N2[C@H]1c1nnn[nH]1 (mixture of isomers) [DL-3-amino-2-phenylpropionyl, 6-(DL-3-amino-2-phenylpropionamido)-2,2-dimethyl-3-(5-tetrazolyl)penam] |
| 1.56 µg/mL (≈ 2.84 µM) | CC1(C)S[C@@H]2[C@H](NC(=O)[C@H](NC(=O)Cc3ccc(NC(=N)N)cc3)c3ccccc3)C(=O)N2[C@H]1c1nn[nH]n1 |
| 0.004 µg/mL (≈ 0.00773 µM) | CN=C(NC)SCC(=O)N[C@@H](C(=O)N[C@@H]1C(=O)N2[C@@H]1SC(C)(C)[C@@H]2c1nn[nH]n1)c1ccccc1 [6-(D-2-[N,N'-dimethylamidinothio)acetamido]-2-phenylacetamido)-2,2-dimethyl-3-(5-tetrazolyl)penam] |
| 0.2 µg/mL (≈ 0.368 µM) | COc1ccc(S(=O)(=O)N[C@@H](C(=O)N[C@@H]2C(=O)N3[C@@H]2SC(C)(C)[C@@H]3c2nn[nH]n2)c2ccccc2)cc1 |
| 0.39 µg/mL (≈ 0.91 µM) | Cc1cc(C)cc(C(=N)NCC(=O)N[C@@H]2C(=O)N3[C@@H]2SC(C)(C)[C@@H]3c2nnn[nH]2)c1 [2-(3,5-dimethylbenzamidino)acetyl] |
| 12.5 µg/mL (≈ 27.6 µM) | CC1(C)S[C@@H]2[C@H](NC(=O)[C@H](NS(=O)(=O)O)c3ccccc3)C(=O)N2[C@H]1c1nnn[nH]1 [D-2-sulfoamino-2-phenylacetyl, 6-(D-2-sulfoamino-2-phenylacetamido)-2,2-dimethyl-3-(5-tetrazolyl)penam] |
| 0.004 µg/mL (≈ 0.00618 µM) | CC1(C)S[C@@H]2[C@H](NC(=O)[C@H](NC(=O)CNC(=N)c3cc(Cl)cc(S(N)(=O)=O)c3)c3ccccc3)C(=O)N2[C@H]1c1nnn[nH]1 |

Source: patent US4115385A, “Antibacterial 3-(5-tetrazolyl) penam compounds” (Pfizer Inc., priority 1977, dated 1978)
